In assay [1] the test system is LC3-HiBiT reporter in HEK293 cells. Kind of assay: Autophagy flux assay (LC3-HiBiT reporter), HEK293 cells. It is filed as cell-based, human. The text has this: Autophagic flux was quantitatively measured with the Autophagy LC3-HiBiT Reporter Assay System which was purchased from Promega (GA1040) and used according to the manufacturer’s instructions. When autophagy is induced, the cytosolic LC3-I fusion protein is recruited to phagophores where it becomes conjugated to phosphatidylethanolamine to form LC3-II. Upon phagophore membrane elongation and closure to form the mature autophagosome, a significant fraction of tethered LC3 protein becomes captured within the lumen together with various cargo. Subsequently, autophagosomes fuse with lysosomes to form autolysosomes, leading to the ultimate degradation of both cargo and the captured LC3 reporter protein. Thus, changes in the total level of the LC3 reporter protein can be used to monitor changes in autophagic flux. HEK293 cells (ATCC, CRL-1573) stably expressing the LC3-HiBiT reporter were trypsinized from subconfluent culture and seeded in a 10 cm plate at a density of 3.0 × 10^6 per plate. Cells were incubated overnight at 37 °C in 5% CO2. Cells were transfected with FLAG-peptide plasmids in combination with pcDNA or A53T a-syn plasmids. After 24 h, cells were trypsinized and seeded in triplicate in a white flat-bottomed 96-well plate at a density of 20,000 cells per well. Cell medium was replaced the next day with fresh medium containing DMSO, Rapamycin, or Bafilomycin A1 and incubated for 24 h at 37 °C with 5% CO2. 80 µL of Working prewarmed Nano-Glo® HiBiT lytic buffer containing HiBiT substrate and LgBit protein (N3030) were added to each well containing 20 µL of cell medium and left to incubate on a rocker for 10 min. Samples were read using a luminometer with a 480 nm filter with measured RLU being directly proportional to HiBiT-conjugated LC3.
A general note: The HiBiT peptide binds its large partner to form an active luciferase.

The subject of assay [2] is A53T a-syn expressing HEK293 cells. Kind of assay: Cell Titer-Glo cell viability, A53T a-syn expressing cells. The assay is classed as cell-based, human. The conditions noted are these: A53T a-syn cells. On the procedure: Oligonucleotides encoding the specific peptides were synthesized and individually cloned into the pLJM1 nGFP lentiviral vector. HEK293T cells were infected with individual constructs, and cell viability was assessed using Cell Titer-Glo luminescent assay (Promega) at 72 h post infection.
Cells were trypsinized from subconfluent cultures as described earlier, suspended in culture media, and then seeded into triplicate wells of a 96-well plate (100 µl/well) at a density of 1.5 × 10^4 cells per well with standard culture conditions of 5% CO2 at 37 °C. Cells were infected with lentivirus expressing peptide at a MOI of 5 for 72 h or transfected with plasmid for 72 h. Cell Titer-Glo reagent was added to each well (30 µL), according to the manufacturer’s protocol and […].
In general terms: In ATP-based viability assays light output follows the ATP content of the culture.

Another assay concerns A53T a-syn. Kind of assay: A53T a-syn protein level in HEK293 cells by immunoblot. It is filed as cell-based, human. As to the method:
Infected or transfected cells were scraped from six-well dishes and lysed with lysis buffer (50 mM Tris-HCl pH 7.4, 1% Nonidet P-40, 150 mM NaCl, 1 mM EDTA, 1× protease inhibitor mixture (Sigma)) for 30 min at 4 °C. The insoluble pellet was removed following a 10,000 rpm spin for 5 min at 4 °C. Lysates were analyzed by SDS-PAGE/immunoblot using 4–20% Mini-PROTEAN Tris-glycine gels (Bio-Rad), transferred to polyvinylidene fluoride (PVDF) membranes, and blocked in 5% milk containing PBS-Tween-20 (0.1%) for 1 h. PVDF membranes were then incubated with specified primary antibodies followed by incubation with horseradish peroxidase-conjugated secondary antibodies (anti-mouse HRP-linked, Cell Signaling, catalog #7076, 1:5000; anti-rabbit HRP-linked, Cell Signaling, catalog #7074, 1:5000) and detected using enhanced chemiluminescence (GE Healthcare). Anti-a-syn antibody (clone 42) was obtained from BD Biosciences (catalog #610787, 1:1000). Anti-LAMP1 antibody was obtained from Abcam (catalog #ab24170, 1:500). Anti-beta-actin antibody was obtained from Cell Signaling (13E5) (catalog #4970, 1:1000). Anti-CD63 antibody was obtained from R&D Systems (catalog #MAB50482-SP, 1:1000).

The target in the next assay is VPS4. Particulars: motif-domain interaction; read-out: CHMP2B-VPS4 interaction affinity; cited from earlier work. The text has this:
CHMP2B has been reported to bind to Vacuolar Protein Sorting 4 (VPS4), an AAA-type adenosine triphosphatase. This interaction is mediated by the C-terminal MIM on CHMP2B and a Microtubule Interacting and Trafficking (MIT) domain on VPS4. […] However, we also noted that many CHMP proteins can self-interact and have been reported to multimerize, which may contribute to their function. In particular, CHMP2B can self-interact[30] and is thought to polymerize at the budding of membranes during endosome formation. ...

In assay [3] the test system is PDE dopaminergic neurons of A30P a-syn C. elegans. Kind of assay: C. elegans PDE neurite length assay. The assay is classed as in vivo. On the procedure: C. elegans strains were grown and maintained under standard conditions at 22–23 °C [66]. BZ555 [dat-1p::gfp] was obtained from the C. elegans Genetics Center (CGC; University of Minnesota, St Paul, MN, USA), TWH1 ([dat-1p::a-syn(A30P), ges-1p::DsRed]; [dat-1p::gfp]) was obtained by crossing BZ555 with A30P a-syn transgenic animals (kindly provided by Dr. Takeshi Iwatsubo, University of Tokyo)[67].
The peptide construct (pPD97.78_osm-6p_TagRFP_wpeptide) was obtained by subcloning the following fragments into NheI and SpeI sites of pPD97.78 (A. Fire): NheI-AgeI […] fragment (2.4 kb) obtained by PCR using primer set 5′-[…]-3′ and 5′-[…]-3′ and N2 genomic DNA as a template, AgeI-EcoRI TagRFP fragment obtained by PCR using primer set 5′-gttgaccggt[…]-3′ and 5′-ggcagaattcga[…]-3′, EcoRI-SmaI peptide ([…]) fragment digested from CMV_[…]_worm, SmaI-SpeI unc-54 3′-UTR fragment digested from pPD95.75 (Fire vector). The TagRFP control construct was obtained by replacing the EcoRI-SmaI peptide fragment and SmaI-SpeI unc-54 3′-UTR fragment from pPD97.78_osm-6p_TagRFP_wpeptide, to EcoRI- SpeI unc-54 3′-UTR fragment digested from pPD95.75[68].
Each plasmid (40 ng/µl) was injected with a co-injection marker, sur-5p::mCherry into TWH1. The animals carrying the extrachromosomal arrays were transferred to new plates, and their progenies were analyzed at the adult stage under a widefield microscope (Zeiss AxioObserver). Pearson Chi-square test was used for statistical analysis.

In assay [4] the target is T1, purified VPS4B (Vacuolar Protein Sorting 4) (UniProt O75351 1-444).
T1 chain: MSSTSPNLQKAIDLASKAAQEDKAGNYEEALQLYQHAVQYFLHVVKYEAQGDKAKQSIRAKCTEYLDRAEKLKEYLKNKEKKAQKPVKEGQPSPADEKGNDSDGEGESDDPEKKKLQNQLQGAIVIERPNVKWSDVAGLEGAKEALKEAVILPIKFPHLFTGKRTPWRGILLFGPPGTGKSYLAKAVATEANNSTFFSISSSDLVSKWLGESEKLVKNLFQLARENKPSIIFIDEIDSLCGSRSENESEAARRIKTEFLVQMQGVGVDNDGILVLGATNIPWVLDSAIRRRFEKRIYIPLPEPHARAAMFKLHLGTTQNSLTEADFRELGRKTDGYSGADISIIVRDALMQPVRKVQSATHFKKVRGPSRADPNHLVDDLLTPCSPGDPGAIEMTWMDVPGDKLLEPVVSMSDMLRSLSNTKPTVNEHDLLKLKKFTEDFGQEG
The assay can be described thus: FP.

For assay [5], the target named is T2, purified VPS4B (Vacuolar Protein Sorting 4) (UniProt O75351 1-444).
T2 construct: VPS4B expressed as a His-tagged Sumo construct in a pRSet B vector; The results speak of 'VPS4'; VPS4B is the only VPS4 protein whose purification is described; source: E. coli Overexpress C41, purified (Ni-NTA)
T2 sequence (looked up): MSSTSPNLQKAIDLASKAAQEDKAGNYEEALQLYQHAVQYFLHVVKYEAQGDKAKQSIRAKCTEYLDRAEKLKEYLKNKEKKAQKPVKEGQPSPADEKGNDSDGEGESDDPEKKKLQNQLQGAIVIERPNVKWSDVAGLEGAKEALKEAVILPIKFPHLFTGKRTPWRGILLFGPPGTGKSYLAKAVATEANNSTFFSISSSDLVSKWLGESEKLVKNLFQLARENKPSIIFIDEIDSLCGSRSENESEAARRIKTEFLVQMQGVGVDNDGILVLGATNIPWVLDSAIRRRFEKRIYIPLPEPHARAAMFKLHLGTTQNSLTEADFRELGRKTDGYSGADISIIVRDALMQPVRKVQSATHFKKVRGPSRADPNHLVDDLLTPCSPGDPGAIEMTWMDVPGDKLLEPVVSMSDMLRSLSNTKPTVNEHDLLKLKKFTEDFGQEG
The assay can be described thus: not stated; 'our affinity measurements' of PDpep1.3 with VPS4 (Fig. S1G). The conditions noted are these: both partners purified.

Assay [6] addresses T3, purified recombinant CHMP2B (UniProt Q9UQN3 1-213).
T3 construct: CHMP2B from the vector pET-DEST42 CHMP2B; eluted as a 26 kDa monomer; Removal of tags is not described; source: E. coli Overexpress C41, inclusion bodies, purified (Ni-NTA in guanidine HCl, dialysis, SEC)
The assay can be described thus: fluorescence polarisation; FITC-peptide constant at 50 nM, CHMP2B serially diluted 1:1 from 30 μM; 50 mM Na phosphate pH 5.5 or 20 mM Na acetate pH 5.5, 0.5 mM TCEP, 0.005% Triton-X-100; 30 min at room temperature. The conditions noted are these: both partners purified. In general terms: In fluorescence polarisation assays a small probe gives low polarisation when free and higher when bound to something large.

No end group written: not given here. *: point of attachment. FITC = O=C1OC2(c3ccc(O)cc3Oc3cc(O)ccc32)c2ccc(NC(=S)*)cc21 Some results are limits rather than exact numbers.

T3 sequence (Q9UQN3 whole entry): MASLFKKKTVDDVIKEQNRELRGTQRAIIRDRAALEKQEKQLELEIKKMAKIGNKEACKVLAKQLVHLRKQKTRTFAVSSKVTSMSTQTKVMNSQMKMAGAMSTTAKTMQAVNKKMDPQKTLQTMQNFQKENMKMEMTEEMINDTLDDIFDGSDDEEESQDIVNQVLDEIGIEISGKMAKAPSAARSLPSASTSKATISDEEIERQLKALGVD

Consider `CO[C@H]1C[C@@H]2CC[C@@H](C)[C@@](O)(O2)C(=O)C(=O)N2CCCC[C@H]2C(=O)O[C@H]([C@H](C)C[C@@H]2CC[C@@H](O)[C@H](OC)C2)CC(=O)[C@H](C)/C=C(\C)[C@@H](O)[C@@H](OC)C(=O)[C@H](C)C[C@H](C)/C=C/C=C/C=C/1C` [rapamycin], for which the “Effect on autophagic flux” value in assay [1] was “decreased LC3 reporter levels and luminescent signal”.

As for “CHMP2B: CHarged Multivesicular body Protein 2B, full-length”, the “Effect on cell survival/viability” value in assay [2] was “rescues a-syn cytotoxicity”. For the same molecule, the “Effect on A53T a-syn protein level” value with A53T a-syn is given as “reduces a-syn levels”. Besides, the Kd at VPS4 is 178 µM.

In the case of FEELEAQLARLR [TagRFP::peptide], the “Effect on PDE neurite shortening” value in assay [3] (A30P human a-syn) is “partially rescued”. In assay [3] (a-Syn (A30P), Marker +, adult), the “Proportion displaying Long PDE neurite length” value worked out at 36.95%, the “Proportion displaying Medium PDE neurite length” value turned out to be 48.43% and the “Proportion displaying Short PDE neurite length” value stood at 14.62%.

On to `CO/C1=C\C(C)=C\[C@@H](C)[C@@H](O)[C@@H](C)C/C(C)=C/C=C/[C@H](OC)[C@@H]([C@@H](C)[C@@H](O)[C@H](C)[C@@]2(O)C[C@@H](O)[C@H](C)[C@@H](C(C)C)O2)OC1=O` [bafilomycin A1], for which, in assay [1], the “Effect on autophagic flux” value was “increases LC3 reporter levels and luminescent signal”.

B1: FITC-labeled PDpep1.3 peptide (peptide)
peptide: {FITC}-DEEIERQLKALG
notes: stretch of the C-terminal region (MIM) of CHMP2B; also called FITC-PDpep1.3; source: synthetic peptide (LifeTein)
Turning to B1, the values for the Kd in assay [4], in assay [5] and in assay [6] were roughly 200 µM, greater than 100 µM and 1.8 µM, respectively.

B2: FITC-labeled a-syn peptide, amino acids 103-114 (NEEGAPQEGILE) (peptide)
peptide: {FITC}-NEEGAPQEGILE
notes: α-synuclein amino acids 103-114; also called a-syn peptide fragment; source: synthetic peptide (LifeTein)
As for B2, the Kd in assay [6] was 0.64 µM.

The values are drawn from article PMC10115881, “Disrupting the α-synuclein-ESCRT interaction with a peptide inhibitor mitigates neurodegeneration in preclinical models of Parkinson’s disease” (Nature Communications, 2023).
